PMC11999280, “Design and screening of novel endosomal escape compounds that enhance functional delivery of oligonucleotides in vitro” (Molecular Therapy. Nucleic Acids, 2025)

Columns and labels:
Type in all cases: cell-based
[1] = tested on: mCherry-GAL9 expressing 16HBE cells; assay: GAL9 recruitment assay, 16HBE; details: calculated mean from >3 independent exp.
Procedure, shortened: (§1)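 Endosomal remodeling was inferred from recruitment of stably expressed mCherry-GAL9 into intracellular structures, quantified by confocal image analysis after compound dose-response treatment, fixation and Hoechst nuclear staining.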

[2] = tested on: mCherry-GAL9 expressing HuH7 cells; assay: GAL9 recruitment assay, HuH7; details: calculated mean from >3 independent exp.
Procedure, shortened: as §1

[3] = tested on: mCherry-GAL9 expressing U2OS cells; assay: GAL9 recruitment assay, U2OS; details: calculated mean from >3 independent exp.
Procedure, shortened: as §1

[4] = tested on: mCherry-GAL9 expressing NCI-H358 cells; assay: GAL9 recruitment assay, NCI-H358; details: calculated mean from >3 independent exp.
Procedure, shortened: as §1

[5] = tested on: mCherry-GAL9 expressing HepG2 cells; assay: GAL9 recruitment assay, HepG2; details: calculated mean from >3 independent exp.
Procedure, shortened: as §1

[6] = tested on: HeLa_Luc705 cells (pLuc/705 splice-switching reporter); assay: Functional 705-SSO delivery, luciferase splice-switching assay; details: HeLa-Luc705 + 2 µM SSO, mean from >3 independent experiments
Procedure, shortened: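 Splice correction was measured as firefly luciferase luminescence in Triton X-100 lysates taken 24 h after enhancer treatment. Before treatment, the 10,000 cells/well had spent 24 h with 1–2 μM 705-SSO (2′-OMe, phosphorothioate). For comparison, 100–200 nM SSO was lipofected with LF2000.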

[7] = tested on: mCherry-GAL9 expressing HEK293 cells; assay: GAL9 recruitment assay, HEK293; details: calculated mean from >3 independent exp.
Procedure, shortened: as §1

[8] = tested on: mCherry-GAL9 expressing SHSY5Y cells; assay: GAL9 recruitment assay, SHSY5Y; details: calculated mean from >3 independent exp.
Procedure, shortened: as §1

[9] = tested on: mCherry-GAL9 expressing HeLa cells; assay: GAL9 recruitment assay, HeLa; details: calculated mean from >3 independent exp.
Procedure, shortened: as §1

CCOc1nn(C2CCN(C)CC2)cc1Nc1ncc(C(F)(F)F)c(-c2c[nH]c3ccccc23)n1 [EEE15]
Gal9 response compared to reference ([1]; EEE 0.31 µM): 0.006 | Gal9 response compared to reference ([1]; EEE 0.62 µM): 0.007 | Gal9 response compared to reference ([1]; EEE 1.25 µM): 0.007 | Gal9 response compared to reference ([1]; EEE 2.5 µM): 0.008 | Gal9 response compared to reference ([1]; EEE 5 µM): 0.010 | Gal9 response compared to reference ([1]; EEE 10 µM): 0.034 | Gal9 response compared to reference ([2]; EEE 0.31 µM): 0.008 | Gal9 response compared to reference ([2]; EEE 0.62 µM): 0.007 | Gal9 response compared to reference ([2]; EEE 1.25 µM): 0.008 | Gal9 response compared to reference ([2]; EEE 2.5 µM): 0.009 | Gal9 response compared to reference ([2]; EEE 5 µM): 0.009 | Gal9 response compared to reference ([2]; EEE 10 µM): 0.011 | Gal9 response compared to reference ([3]; EEE 0.31 µM): 0.010 | Gal9 response compared to reference ([3]; EEE 0.62 µM): 0.009 | Gal9 response compared to reference ([3]; EEE 1.25 µM): 0.010 | Gal9 response compared to reference ([3]; EEE 2.5 µM): 0.009 | Gal9 response compared to reference ([3]; EEE 5 µM): 0.014 | Gal9 response compared to reference ([3]; EEE 10 µM): 0.014 | Gal9 response compared to reference ([4]; EEE 0.31 µM): 0.013 | Gal9 response compared to reference ([4]; EEE 0.62 µM): 0.016 | Gal9 response compared to reference ([4]; EEE 1.25 µM): 0.017 | Gal9 response compared to reference ([4]; EEE 2.5 µM): 0.015 | Gal9 response compared to reference ([4]; EEE 5 µM): 0.016 | Gal9 response compared to reference ([4]; EEE 10 µM): 0.011 | Gal9 response compared to reference ([5]; EEE 0.31 µM): 0.008 | Gal9 response compared to reference ([5]; EEE 0.62 µM): 0.008 | Gal9 response compared to reference ([5]; EEE 1.25 µM): 0.009 | Gal9 response compared to reference ([5]; EEE 2.5 µM): 0.007 | Gal9 response compared to reference ([5]; EEE 5 µM): 0.007 | Gal9 response compared to reference ([5]; EEE 10 µM): 0.010 | Luciferase expression compared to reference ([6]; EEE 2.5 - 3 µM): 0.652 | Gal9 response compared to reference ([7]; EEE 0.31 µM): 0.020 | Gal9 response compared to reference ([7]; EEE 0.62 µM): 0.019 | Gal9 response compared to reference ([7]; EEE 1.25 µM): 0.015 | Gal9 response compared to reference ([7]; EEE 2.5 µM): 0.015 | Gal9 response compared to reference ([7]; EEE 5 µM): 0.018 | Gal9 response compared to reference ([7]; EEE 10 µM): 0.022 | Gal9 response compared to reference ([8]; EEE 0.31 µM): 0.014 | Gal9 response compared to reference ([8]; EEE 0.62 µM): 0.017 | Gal9 response compared to reference ([8]; EEE 1.25 µM): 0.014 | Gal9 response compared to reference ([8]; EEE 2.5 µM): 0.016 | Gal9 response compared to reference ([8]; EEE 5 µM): 0.012 | Gal9 response compared to reference ([8]; EEE 10 µM): 0.012 | Gal9 response compared to reference ([9]; EEE 0.31 µM): 0.004 | Gal9 response compared to reference ([9]; EEE 0.62 µM): 0.004 | Gal9 response compared to reference ([9]; EEE 1.25 µM): 0.004 | Gal9 response compared to reference ([9]; EEE 2.5 µM): 0.005 | Gal9 response compared to reference ([9]; EEE 5 µM): 0.004 | Gal9 response compared to reference ([9]; EEE 10 µM): 0.003

COc1nn(C2CCNCC2)cc1Nc1ncc(C(F)(F)F)c(-c2c[nH]c3ccccc23)n1 [EEE24]
Gal9 response compared to reference ([1]; EEE 0.31 µM): 0.010 | Gal9 response compared to reference ([1]; EEE 0.62 µM): 0.011 | Gal9 response compared to reference ([1]; EEE 1.25 µM): 0.011 | Gal9 response compared to reference ([1]; EEE 2.5 µM): 0.014 | Gal9 response compared to reference ([1]; EEE 5 µM): 0.035 | Gal9 response compared to reference ([1]; EEE 10 µM): 0.335 | Gal9 response compared to reference ([2]; EEE 0.31 µM): 0.010 | Gal9 response compared to reference ([2]; EEE 0.62 µM): 0.010 | Gal9 response compared to reference ([2]; EEE 1.25 µM): 0.011 | Gal9 response compared to reference ([2]; EEE 2.5 µM): 0.016 | Gal9 response compared to reference ([2]; EEE 5 µM): 0.019 | Gal9 response compared to reference ([2]; EEE 10 µM): 0.174 | Gal9 response compared to reference ([3]; EEE 0.31 µM): 0.014 | Gal9 response compared to reference ([3]; EEE 0.62 µM): 0.015 | Gal9 response compared to reference ([3]; EEE 1.25 µM): 0.014 | Gal9 response compared to reference ([3]; EEE 2.5 µM): 0.015 | Gal9 response compared to reference ([3]; EEE 5 µM): 0.026 | Gal9 response compared to reference ([3]; EEE 10 µM): 0.166 | Gal9 response compared to reference ([4]; EEE 0.31 µM): 0.019 | Gal9 response compared to reference ([4]; EEE 0.62 µM): 0.018 | Gal9 response compared to reference ([4]; EEE 1.25 µM): 0.016 | Gal9 response compared to reference ([4]; EEE 2.5 µM): 0.015 | Gal9 response compared to reference ([4]; EEE 5 µM): 0.021 | Gal9 response compared to reference ([4]; EEE 10 µM): 0.115 | Gal9 response compared to reference ([5]; EEE 0.31 µM): 0.010 | Gal9 response compared to reference ([5]; EEE 0.62 µM): 0.009 | Gal9 response compared to reference ([5]; EEE 1.25 µM): 0.009 | Gal9 response compared to reference ([5]; EEE 2.5 µM): 0.008 | Gal9 response compared to reference ([5]; EEE 5 µM): 0.008 | Gal9 response compared to reference ([5]; EEE 10 µM): 0.104 | Luciferase expression compared to reference ([6]; EEE 5 µM): 7.300 | Luciferase expression compared to reference ([6]; EEE 1-1.25 µM): 0.741 | Luciferase expression compared to reference ([6]; EEE 2.5 - 3 µM): 1.920 | Gal9 response compared to reference ([7]; EEE 0.31 µM): 0.024 | Gal9 response compared to reference ([7]; EEE 0.62 µM): 0.019 | Gal9 response compared to reference ([7]; EEE 1.25 µM): 0.014 | Gal9 response compared to reference ([7]; EEE 2.5 µM): 0.017 | Gal9 response compared to reference ([7]; EEE 5 µM): 0.100 | Gal9 response compared to reference ([7]; EEE 10 µM): 0.464 | Gal9 response compared to reference ([8]; EEE 0.31 µM): 0.016 | Gal9 response compared to reference ([8]; EEE 0.62 µM): 0.015 | Gal9 response compared to reference ([8]; EEE 1.25 µM): 0.010 | Gal9 response compared to reference ([8]; EEE 2.5 µM): 0.013 | Gal9 response compared to reference ([8]; EEE 5 µM): 0.070 | Gal9 response compared to reference ([8]; EEE 10 µM): 0.703 | Gal9 response compared to reference ([9]; EEE 0.31 µM): 0.005 | Gal9 response compared to reference ([9]; EEE 0.62 µM): 0.005 | Gal9 response compared to reference ([9]; EEE 1.25 µM): 0.004 | Gal9 response compared to reference ([9]; EEE 2.5 µM): 0.004 | Gal9 response compared to reference ([9]; EEE 5 µM): 0.008 | Gal9 response compared to reference ([9]; EEE 10 µM): 0.207
